Test results published in patent publication US20210251994A1, “INCREASING IMMUNE ACTIVITY THROUGH MODULATION OF POSTCELLULAR SIGNALING FACTORS” (FLAGSHIP PIONEERING INNOVATIONS V, INC., priority 2018, published 2021).
Entries after “also recorded” stand apart in the source; their conditions may differ.

Tests used:
[1] = test system: NFKB; assay: NFKB reporter activity in THP1-Dual monocytes co-cultured with treated Caki-1 cells; assay type: cell-based, human; conditions: Caki-1 cells treated 24 hours, then co-culture with THP1-Dual cells 24 hours; versus DMSO
Procedure: (§1) Caki-1 renal cell carcinoma cells were treated with either control (DMSO) or various doses of Erastin, for 24 hours prior to co-culture with THP1-Dual cells for an additional 24 hours. Erastin was purchased from Selleckchem (Houston, Tex.) and dissolved in DMSO. Subsequently, the THP1 supernatants were assessed for NFKB or IRF reporter activity.
(§2) Caki-1 cells were acquired from ATCC and THP1-Dual cells acquired from InvivoGen (San Diego, Calif.). Both cell types were cultured in 96-well plates for the duration of the assay. 7,500 Caki-1 cells were plated 24 hours prior to dosing with Erastin, with a final DMSO concentration of 0.5%. 24 hours post-treatment, THP1-Dual cells (25,000 cells/well) were added to the Caki-1 cells. 24 hours later, 30 μl of supernatant was mixed with either 200 μl QuantiBlue (InvivoGen) or 50 μl QuantiLuc and absorbance or luminescence was recorded on a Molecular Devices plate reader.
as §1, with “RSL3,” for “Erastin,”, “RSL3” for “Erastin”, “Selleckchem” for “Selleckchem (Houston, Tex.)”
as §2, with “RSL3,” for “Erastin,”, “(InvivoGen, San Diego, Calif.)” for “(InvivoGen)”
Caki-1 renal carcinoma cells were treated with either control (DMSO) or various doses (e.g. 0.002, 0.005, 0.014, 0.041, 0.123, 0.370, 1.111, 3.333 and 10 μM) of a GPX4 inhibitor (RSL3 or ML162) in the presence or absence of 1 μM Ferrostatin for 24 hours prior to co-culture with THP1-Dual cells for an additional 24 hours. Subsequently, the THP1 supernatant was assessed for NFKB reporter activity. Caki-1 cells were acquired from ATCC and THP1-Dual cells acquired from InvivoGen (San Diego, Calif.). Both cell types were cultured in 96-well plates for the duration of the assay.

[2] = test system: Caki-1 renal cell carcinoma cells; assay: Viability of Caki-1 renal cell carcinoma cells after treatment; assay type: cell-based; conditions: various doses, 24 hours treatment
Procedure: Caki-1 renal carcinoma cells were treated with either control (DMSO) or various doses (e.g. 0.002, 0.005, 0.014, 0.041, 0.123, 0.370, 1.111, 3.333 and 10 μM) of a GPX4 inhibitor (RSL3 or ML162) in the presence or absence of 1 μM Ferrostatin for 24 hours prior to co-culture with THP1-Dual cells for an additional 24 hours. […] Caki-1 cells were acquired from ATCC and THP1-Dual cells acquired from InvivoGen (San Diego, Calif.). Both cell types were cultured in 96-well plates for the duration of the assay.

[3] = test system: A20 lymphoma cells; assay: Viability of A20 B-cell leukemia / lymphoma cells after treatment; assay type: cell-based; conditions: various doses, 24 hours treatment
[4] = test system: IRF; assay: IRF reporter activity in THP1-Dual monocytes co-cultured with treated A20 cells; assay type: cell-based, human; conditions: A20 cells treated 24 hours, then co-culture with THP1-Dual cells 24 hours; versus DMSO
Procedure: A20 B-cell leukemia cells were treated with either control (DMSO) or various doses of RSL3, for 24 hours prior to co-culture with THP1-Dual cells for an additional 24 hours. RSL3 was purchased from Selleckchem (Houston, Tex.) and dissolved in DMSO. Subsequently, the THP1 supernatants were assessed for NFKB or IRF reporter activity. A20 cells were acquired from ATCC and THP1-Dual cells acquired from InvivoGen (San Diego, Calif.). Both cell types were cultured in 96-well plates for the duration of the assay. 50,000 A20 cells were plated 24 hours prior to dosing with RSL3, with a final DMSO concentration of 0.5%. 24 hours post-treatment, THP1-Dual cells (25,000 cells/well) were added to the A20 cells. 24 hours later, 30 μl of supernatant was mixed with either 200 μl QuantiBlue (InvivoGen, San Diego, Calif.) or 50 μl QuantiLuc and absorbance or luminescence was recorded on a Molecular Devices plate reader.

[5] = test system: RAS-expressing cells; conditions: knockdown studies; U.S. Pat. No. 8,546,421; cited from earlier work
[6] = test system: NFKB; assay: NFKB reporter activity in THP1-Dual monocytes co-cultured with treated A20 cells; assay type: cell-based, human; conditions: A20 cells treated 24 hours, then co-culture with THP1-Dual cells 24 hours; versus DMSO
Procedure: as §1, with “A20 B-cell leukemia” for “Caki-1 renal cell carcinoma”, “RSL3,” for “Erastin,”, “RSL3” for “Erastin”
as §2, with “A20” for “Caki-1”, “50,000 A20” for “7,500 Caki-1”, “RSL3,” for “Erastin,”, “(InvivoGen, San Diego, Calif.)” for “(InvivoGen)”
A20 lymphoma cells were treated with various doses (e.g. 0.002, 0.005, 0.014, 0.041, 0.123, 0.370, 1.111, 3.333 and 10 μM) of a GPX4 inhibitor (RSL3, ML162 or ML210) in the presence or absence of 1 μM Ferrostatin-1 for 24 hours. ML162 was purchased from Cayman Chemical Company Inc and resuspended in DMSO. ML210 was purchased from Sigma-Aldrich and resuspended in DMSO. A20 lymphoma cells were also treated with DMSO as a negative control. After treatment with DMSO or a GPX4 inhibitor for 24 hours, the A20 lymphoma cells were co-cultured with THP1-Dual cells for an additional 24 hours. Subsequently, the THP1 supernatant was assessed for NFKB reporter activity. A20 cells were acquired from ATCC and THP1-Dual cells were acquired from InvivoGen (San Diego, Calif.). Both cell types were cultured in 96-well plates for the duration of the assay.

[7] = test system: NFKB; assay: NFKB reporter activity in THP1-Dual monocytes co-cultured with treated Jurkat cells; assay type: cell-based, human; conditions: Jurkat cells treated 24 hours, then co-culture with THP1-Dual cells 24 hours; versus DMSO
Procedure: as §1, with “Jurkat T” for “Caki-1 renal”, “leukemia” for “carcinoma”, “RSL3,” for “Erastin,”, “RSL3” for “Erastin”
as §2, with “Jurkat” for “Caki-1”, “100,000 Jurkat” for “7,500 Caki-1”, “RSL3,” for “Erastin,”, “(InvivoGen, San Diego, Calif.)” for “(InvivoGen)”

[8] = test system: Jurkat T cell leukemia cells; assay: Viability of Jurkat T cell leukemia cells after treatment; assay type: cell-based; conditions: various doses, 24 hours treatment

For COC(=O)c1ccc([C@H]2c3[nH]c4ccccc4c3C[C@H](C(=O)OC)N2C(=O)CCl)cc1 [RSL3], the “NFKB signaling/activity in THP1 monocytes” value [1] was “elicited NFKB signaling; also recorded: increased NFKB activity in THP1 cells in a dose dependent manner”, the “viability of Caki-1 cells” value [2] was “negatively affected the viability; also recorded: decreased viability of the cells in a dose dependent manner” and the “viability of A20 cells” value [3] was “negatively affected the viability; also recorded: decreased viability of the cells in a dose dependent manner”. For the same compound, the “IRF signaling in THP1 monocytes” value [4] was “elicited”, the “death of RAS-expressing cells” value [5] was “selectively mediated the death of RAS-expressing cells” and the “lipid ROS accumulation” value [5] was “increasing lipid ROS accumulation”. For the same compound, the “NFKB signaling/activity in THP1 monocytes” value [6] was “elicited; also recorded: increased NFKB activity in THP1 cells in a dose dependent manner”, the “NFKB signaling in THP1 monocytes” value [7] was “elicited NFKB signaling” and the “viability of Jurkat T cell leukemia cells” value [8] was “negatively affected the viability”.
